According to US6486185B1, “3-heteroarylidene-2-indolinone protein kinase inhibitors” (Sugen, Inc., priority 1997, dated 2002):

Molecular target: T1, IGF-1R (Homo sapiens, UniProt P08069)
T1 construct: expressed in transfected cells; host or cells: NIH3T3 (3T3/IGF-1R)
Assay: IGF-I receptor ELISA in 3T3/IGF-1R cells
Type: cell-based
Settings: 50% inhibition of PTK activity over control
Procedure: The cellular/catalytic assays described herein are performed in an ELISA format. The general procedure is a follows: a compound is introduced to cells expressing the test kinase, either naturally or recombinantly, for some period of time after which, if the test kinase is a receptor, a ligand known to activate the receptor's activity is added. The cells are lysed and the lysate is transferred to the wells of an ELISA plate previously coated with a specific antibody recognizing the substrate of the enzymatic phosphorylation reaction. Non-substrate components of the cell lysate are washed away and the amount of phosphorylation on the substrate is detected with an antibody specifically recognizing phosphotyrosine compared with control cells that were not contacted with a test compound.
The following protocol may be used to measure phosphotyrosine level on IGF-I receptor, which indicates IGF-I receptor tyrosine kinase activity.
The following materials and reagents are used:
a. The cell line used in this assay is 3T3/IGF-1R, a cell line genetically engineered to overexpresses IGF-1 receptor.
b. NIH3T3/IGF-1R is grown in an incubator with 5% CO2 at 37° C. The growth media is DMEM+10% FBS (heat inactivated)+2 mM L-glutamine.
c. Affinity purified anti-IGF-1R antibody 17-69.
e. Blocking Buffer: TBST plus 5% Milk (Carnation Instant Non-Fat Dry Milk).
Stock solution of TBS (10×) is prepared, and Triton X-100 is added to the buffer during dilution.
Stock solution (5×) is prepared and kept at 4° C.
h. EDTA/HCl: 0.5 M pH 7.0 (NaOH) as 100×stock.
i. Na3VO4: 0.5 M as 100×stock and aliquots are kept in −80° C.
k. Insulin-like growth factor-1 from Promega (Cat# G5111).
l. Rabbit polyclonal anti-phosphotyrosine antiserum.
m. Goat anti-rabbit IgG, POD conjugate (detection antibody), Tago (Cat. No. 4520, Lot No. 1802): Tago, Inc., Burlingame, Calif.
n. ABTS (2,2′-azinobis(3-ethylbenzthiazolinesulfonic acid)) solution:
ABTS solution should be kept in dark and 4° C. The solution should be discarded when it turns green.
o. Hydrogen Peroxide: 30% solution is kept in the dark and at 4° C.
All the following steps are conducted at room temperature unless it is specifically indicated. All ELISA plate washings are performed by rinsing the plate with tap water three times, followed by one TBST rinse. Pat plate dry with paper towels.
1. The cells, grown in tissue culture dish (Corning 25020-100) to 80-90% confluence, are harvested with Trypsin-EDTA (0.25%, 0.5 mL/D-100, GIBCO).
2. Resuspend the cells in fresh DMEM+10% FBS+2 mM L-Glutamine, and transfer to 96-well tissue culture plate (Corning, 25806-96) at 20,000 cells/well (100 μL/well). Incubate for 1 day then replace medium to serum-free medium (90/μL) and incubate in 5% CO2 and 37° C. overnight.
B. ELISA Plate Coating and Blocking:
1. Coat the ELISA plate (Corning 25805-96) with Anti-IGF-1R Antibody at 0.5 μg/well in 100 μL PBS at least 2 hours.
2. Remove the coating solution, and replace with 100 μL Blocking Buffer, and shake for 30 minutes. Remove the blocking buffer and wash the plate just before adding lysate.
1. The drugs are tested in serum-free condition.
2. Dilute drug stock (in 100% DMSO) 1:10 with DMEM in 96-well poly-propylene plate, and transfer 10 μL/well of this solution to the cells to achieve final drug dilution 1:100, and final DMSO concentration of 1.0%. Incubate the cells in 5% CO2 at 37° C. for 2 hours.
3. Prepare fresh cell lysis buffer (HNTG*)
4. After drug incubation for two hours, transfer 10 μL/well of 200 nM IGF-1 Ligand in PBS to the cells (Final Conc.=20 nM), and incubate at 5% CO2 at 37° C. for 10 minutes.
5. Remove media and add 100 μL/well HNTG* and shake for 10 minutes. Look at cells under microscope to see if they are adequately lysed.
6. Use a 12-channel pipette to scrape the cells from the plate, and homogenize the lysate.by repeated aspiration and dispensing. Transfer all the lysate to the antibody coated ELISA plate, and shake for 1 hour.
7. […]

T1 sequence (P08069 31-1367, species assumed): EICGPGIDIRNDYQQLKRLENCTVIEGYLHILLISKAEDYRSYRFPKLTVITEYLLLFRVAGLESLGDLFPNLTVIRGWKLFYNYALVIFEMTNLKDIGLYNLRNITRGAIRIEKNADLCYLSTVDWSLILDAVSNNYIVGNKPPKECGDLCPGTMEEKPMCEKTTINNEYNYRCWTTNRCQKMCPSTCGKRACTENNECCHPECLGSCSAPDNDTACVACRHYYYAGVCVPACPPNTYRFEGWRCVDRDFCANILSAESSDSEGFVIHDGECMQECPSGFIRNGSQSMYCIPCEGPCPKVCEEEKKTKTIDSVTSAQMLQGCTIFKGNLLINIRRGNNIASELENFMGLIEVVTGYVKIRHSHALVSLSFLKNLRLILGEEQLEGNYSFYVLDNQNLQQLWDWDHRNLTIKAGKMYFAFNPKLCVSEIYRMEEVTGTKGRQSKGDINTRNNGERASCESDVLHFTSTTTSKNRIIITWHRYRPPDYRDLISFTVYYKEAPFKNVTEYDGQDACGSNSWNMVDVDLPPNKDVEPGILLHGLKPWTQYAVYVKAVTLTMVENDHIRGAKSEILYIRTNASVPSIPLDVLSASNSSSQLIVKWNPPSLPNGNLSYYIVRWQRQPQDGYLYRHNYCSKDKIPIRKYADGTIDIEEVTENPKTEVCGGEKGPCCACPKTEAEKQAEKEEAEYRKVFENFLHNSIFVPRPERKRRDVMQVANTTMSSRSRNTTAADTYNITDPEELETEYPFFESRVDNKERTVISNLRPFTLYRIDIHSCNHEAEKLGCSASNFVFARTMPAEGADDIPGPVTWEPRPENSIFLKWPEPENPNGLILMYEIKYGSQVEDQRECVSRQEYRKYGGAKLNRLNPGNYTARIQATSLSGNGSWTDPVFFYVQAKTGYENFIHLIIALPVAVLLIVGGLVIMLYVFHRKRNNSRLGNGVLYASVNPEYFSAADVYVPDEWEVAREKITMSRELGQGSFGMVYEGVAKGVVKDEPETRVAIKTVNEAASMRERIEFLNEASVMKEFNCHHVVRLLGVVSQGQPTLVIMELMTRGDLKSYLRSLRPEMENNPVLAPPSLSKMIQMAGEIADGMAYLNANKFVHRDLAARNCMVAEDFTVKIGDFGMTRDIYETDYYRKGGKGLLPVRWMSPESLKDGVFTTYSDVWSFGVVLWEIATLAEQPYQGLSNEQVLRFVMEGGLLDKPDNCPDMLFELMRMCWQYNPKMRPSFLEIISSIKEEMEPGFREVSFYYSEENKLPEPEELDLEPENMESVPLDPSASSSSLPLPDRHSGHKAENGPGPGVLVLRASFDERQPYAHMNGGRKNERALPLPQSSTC

CCOC(=O)c1[nH]c(C=C2C(=O)Nc3ccccc32)c(C(C)=O)c1C [3-(4-acetyl-2-ethoxycarbonyl-3-methylpyrrol-5-methylidenyl)-2-indolinone]
IC50: > 10 µM

CCOC(=O)c1c[nH]c(C=C2C(=O)Nc3ccccc32)c1C [3-(4-ethoxycarbonyl-3-methylpyrrol-2-methylidenyl)-2-indolinone]
IC50: > 100 µM

CCOC(=O)CCc1c(C(=O)OCC)[nH]c(C=C2C(=O)Nc3ccccc32)c1CC(=O)OCC [3-[2-ethoxycarbonyl-3-(2-ethoxycarbonylethyl)-4-ethoxycarbonylmethyl)pyrrol-5-methylidenyl)-2-indolinone]
IC50: > 10 µM

CC(=O)c1[nH]c(C=C2C(=O)Nc3ccccc32)c(C)c1C [3-(2-acetyl-3,4-dimethylpyrrol-5-methylidenyl)-2-indolinone]
IC50: > 100 µM

CCOC(=O)c1c(C)[nH]c(C=C2C(=O)Nc3ccc(Br)cc32)c1C [3-(2,4-dimethyl-3-ethoxycarbonylpyrrol-5-methylidenyl)-5-bromo-2-indolinone]
IC50: > 100 µM

COC(=O)CCc1c[nH]c(C=C2C(=O)Nc3cc(OC)c(OC)cc32)c1C [3-[4-(2-methoxycarbonylethyl)-3-methylpyrrol-2-methylidenyl]-5,6-dimethoxy-2-indolinone]
IC50: > 50 µM

COC(=O)Cc1c(Cl)[nH]c(C=C2C(=O)Nc3ccccc32)c1C(=O)OC [3-(2-chloro-4-methoxycarbonyl-3-methoxycarbonylmethylpyrrol-5-methylidenyl)-2-indolinone]
IC50: > 50 µM

Cc1c[nH]c(C=C2C(=O)Nc3ccccc32)c1CCC(=O)O [3-[3-(2-carboxyethyl-4-methylpyrrol-2-methylidenyl]-2-indolinone]
IC50: > 100 µM

COC(=O)CCc1c[nH]c(C=C2C(=O)Nc3ccccc32)c1C [3-[4-(2-methoxycarbonylethyl-3-methylpyrrol-2-methylidenyl]-2-indolinone]
IC50: > 100 µM

CCOC(=O)c1c(C)[nH]c(C=C2C(=O)Nc3ccc(NC(=O)c4ccc(C(=O)OC)cc4)cc32)c1C [3-(2,4-dimethyl-3-ethoxycarbonylpyrrol-5-methylidenyl)-5-(4-methoxycarbonylbenzamido)-2-indolinone]
IC50: > 10 µM
